Data taken from ChEMBL document CHEMBL5678810.

How the values were obtained:
[1] = target: 3-phosphoinositide-dependent protein kinase 1 (Homo sapiens) (UniProt O15530); assay: Inhibition of PDK1 Lys1 labeling site in human PC-3 cell lysate at 10 uM by KiNativ profiling analysis relative to control
[2] = target: Cyclin-dependent kinase-like 5 (Homo sapiens) (UniProt O76039); assay: Inhibition of T7 bacteriophage fused human CDKL5 at 10 uM by KINOMEscan analysis relative to control
[3] = target: LIM domain kinase 1 (Homo sapiens) (UniProt P53667); assay: Inhibition of T7 bacteriophage fused human LIMK1 at 10 uM by KINOMEscan analysis relative to control; values are per cent of control
[4] = system: Epidermal growth factor receptor (Homo sapiens), P00533 [G719S]; assay: Inhibition of T7 bacteriophage fused human EGFR G719S mutant at 10 uM by KINOMEscan analysis relative to control
[5] = system: Receptor-type tyrosine-protein kinase FLT3 (Homo sapiens), P36888 [UNDEFINED MUTATION]; assay: Inhibition of T7 bacteriophage fused human FLT3 ITD mutant at 10 uM by KINOMEscan analysis relative to control
[6] = target: Vascular endothelial growth factor receptor 1 (Homo sapiens) (UniProt P17948); assay: Inhibition of T7 bacteriophage fused human FLT1 at 10 uM by KINOMEscan analysis relative to control
[7] = system: Tyrosine-protein kinase ABL1 (Homo sapiens), P00519 [H396P]; assay: Inhibition of T7 bacteriophage fused human nonphosphorylated ABL1 H396P mutant at 10 uM by KINOMEscan analysis relative to control
[8] = target: Bone morphogenetic protein receptor type-2 (Homo sapiens) (UniProt Q13873); assay: Inhibition of T7 bacteriophage fused human BMPR2 at 10 uM by KINOMEscan analysis relative to control
[9] = system: Proto-oncogene tyrosine-protein kinase receptor Ret (Homo sapiens), P07949 [V804M]; assay: Inhibition of T7 bacteriophage fused human RET V804M mutant at 10 uM by KINOMEscan analysis relative to control
[10] = target: Mitogen-activated protein kinase kinase kinase 5 (Homo sapiens) (UniProt Q99683); assay: Inhibition of T7 bacteriophage fused human ASK1 at 10 uM by KINOMEscan analysis relative to control
[11] = target: Tyrosine-protein kinase ZAP-70 (Homo sapiens) (UniProt P43403); assay: Inhibition of T7 bacteriophage fused human ZAP70 at 10 uM by KINOMEscan analysis relative to control
[12] = target: Cytoplasmic tyrosine-protein kinase BMX (Homo sapiens) (UniProt P51813); assay: Inhibition of T7 bacteriophage fused human BMX at 10 uM by KINOMEscan analysis relative to control
[13] = target: Citron Rho-interacting kinase (Homo sapiens) (UniProt O14578); assay: Inhibition of T7 bacteriophage fused human CIT at 10 uM by KINOMEscan analysis relative to control; values are per cent of control
[14] = target: Ephrin type-B receptor 3 (Homo sapiens) (UniProt P54753); assay: Inhibition of T7 bacteriophage fused human EPHB3 at 10 uM by KINOMEscan analysis relative to control
[15] = target: G protein-coupled receptor kinase 4 (Homo sapiens) (UniProt P32298); assay: Inhibition of T7 bacteriophage fused human GRK4 at 10 uM by KINOMEscan analysis relative to control; values are per cent of control
[16] = target: Mitogen-activated protein kinase 4 (Homo sapiens) (UniProt P31152); assay: Inhibition of T7 bacteriophage fused human ERK4 at 10 uM by KINOMEscan analysis relative to control
[17] = target: Mitogen-activated protein kinase 12 (Homo sapiens) (UniProt P53778); assay: Inhibition of T7 bacteriophage fused human p38-gamma at 10 uM by KINOMEscan analysis relative to control
[18] = target: Myosin light chain kinase family member 4 (Homo sapiens) (UniProt Q86YV6); assay: Inhibition of T7 bacteriophage fused human MYLK4 at 10 uM by KINOMEscan analysis relative to control; values are per cent of control
[19] = target: Ribosomal protein S6 kinase alpha-4 (Homo sapiens) (UniProt O75676); assay: Inhibition of T7 bacteriophage fused human C-terminal RPS6KA4 Kinase domain-2 at 10 uM by KINOMEscan analysis relative to control
[20] = target: Interleukin-1 receptor-associated kinase 1 (Homo sapiens) (UniProt P51617); assay: Inhibition of T7 bacteriophage fused human IRAK1 at 10 uM by KINOMEscan analysis relative to control
[21] = target: Mitogen-activated protein kinase kinase kinase 15 (Homo sapiens) (UniProt Q6ZN16); assay: Inhibition of T7 bacteriophage fused human MAP3K15 at 10 uM by KINOMEscan analysis relative to control; values are per cent of control
[22] = target: Ephrin type-A receptor 8 (Homo sapiens) (UniProt P29322); assay: Inhibition of T7 bacteriophage fused human EPHA8 at 10 uM by KINOMEscan analysis relative to control; values are per cent of control
[23] = system: Tyrosine-protein kinase ABL1 (Homo sapiens), P00519 [Q252H]; assay: Inhibition of T7 bacteriophage fused human phosphorylated ABL1 Q252H mutant at 10 uM by KINOMEscan analysis relative to control
[24] = target: Casein kinase II subunit alpha (Homo sapiens) (UniProt P68400); assay: Inhibition of T7 bacteriophage fused human CSNK2A1 at 10 uM by KINOMEscan analysis relative to control
[25] = target: Protein-tyrosine kinase 2-beta (Homo sapiens) (UniProt Q14289); assay: Inhibition of T7 bacteriophage fused human PYK2 at 10 uM by KINOMEscan analysis relative to control
[26] = target: Dual specificity protein kinase CLK3 (Homo sapiens) (UniProt P49761); assay: Inhibition of T7 bacteriophage fused human CLK3 at 10 uM by KINOMEscan analysis relative to control
[27] = target: Serine/threonine-protein kinase PAK 4 (Homo sapiens) (UniProt O96013); assay: Inhibition of T7 bacteriophage fused human PAK4 at 10 uM by KINOMEscan analysis relative to control
[28] = target: Fibroblast growth factor receptor 3 (Homo sapiens) (UniProt P22607); assay: Inhibition of T7 bacteriophage fused human FGFR3 at 10 uM by KINOMEscan analysis relative to control; values are per cent of control
[29] = target: Mitogen-activated protein kinase kinase kinase kinase 1 (Homo sapiens) (UniProt Q92918); assay: Inhibition of T7 bacteriophage fused human HPK1 at 10 uM by KINOMEscan analysis relative to control
[30] = target: Serine/threonine-protein kinase TAO2 (Homo sapiens) (UniProt Q9UL54); assay: Inhibition of TAO2 Lys2 labeling site in human PC-3 cell lysate at 10 uM by KiNativ profiling analysis relative to control; format: subcellular

Sequence of Tyrosine-protein kinase ZAP-70 (Homo sapiens) (P43403 whole entry, the tested form may be a part): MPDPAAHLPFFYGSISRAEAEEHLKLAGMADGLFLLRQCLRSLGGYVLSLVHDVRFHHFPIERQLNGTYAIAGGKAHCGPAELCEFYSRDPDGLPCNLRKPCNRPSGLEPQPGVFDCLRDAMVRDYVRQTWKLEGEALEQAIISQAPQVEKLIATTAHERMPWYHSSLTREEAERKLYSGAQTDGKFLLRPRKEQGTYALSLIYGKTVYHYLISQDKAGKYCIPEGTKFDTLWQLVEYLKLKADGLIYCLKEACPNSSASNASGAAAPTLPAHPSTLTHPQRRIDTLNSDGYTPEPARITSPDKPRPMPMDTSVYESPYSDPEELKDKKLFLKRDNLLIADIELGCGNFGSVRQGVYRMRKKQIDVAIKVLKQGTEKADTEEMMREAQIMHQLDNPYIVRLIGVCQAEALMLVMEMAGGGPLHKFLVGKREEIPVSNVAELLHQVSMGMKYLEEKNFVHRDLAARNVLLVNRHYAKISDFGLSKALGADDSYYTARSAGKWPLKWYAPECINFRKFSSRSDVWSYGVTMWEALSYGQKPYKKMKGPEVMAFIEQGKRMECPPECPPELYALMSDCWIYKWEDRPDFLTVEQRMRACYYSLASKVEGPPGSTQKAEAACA
Sequence of Proto-oncogene tyrosine-protein kinase receptor Ret (Homo sapiens), P07949 [V804M] (P07949 whole entry V804M, the tested form may be a part): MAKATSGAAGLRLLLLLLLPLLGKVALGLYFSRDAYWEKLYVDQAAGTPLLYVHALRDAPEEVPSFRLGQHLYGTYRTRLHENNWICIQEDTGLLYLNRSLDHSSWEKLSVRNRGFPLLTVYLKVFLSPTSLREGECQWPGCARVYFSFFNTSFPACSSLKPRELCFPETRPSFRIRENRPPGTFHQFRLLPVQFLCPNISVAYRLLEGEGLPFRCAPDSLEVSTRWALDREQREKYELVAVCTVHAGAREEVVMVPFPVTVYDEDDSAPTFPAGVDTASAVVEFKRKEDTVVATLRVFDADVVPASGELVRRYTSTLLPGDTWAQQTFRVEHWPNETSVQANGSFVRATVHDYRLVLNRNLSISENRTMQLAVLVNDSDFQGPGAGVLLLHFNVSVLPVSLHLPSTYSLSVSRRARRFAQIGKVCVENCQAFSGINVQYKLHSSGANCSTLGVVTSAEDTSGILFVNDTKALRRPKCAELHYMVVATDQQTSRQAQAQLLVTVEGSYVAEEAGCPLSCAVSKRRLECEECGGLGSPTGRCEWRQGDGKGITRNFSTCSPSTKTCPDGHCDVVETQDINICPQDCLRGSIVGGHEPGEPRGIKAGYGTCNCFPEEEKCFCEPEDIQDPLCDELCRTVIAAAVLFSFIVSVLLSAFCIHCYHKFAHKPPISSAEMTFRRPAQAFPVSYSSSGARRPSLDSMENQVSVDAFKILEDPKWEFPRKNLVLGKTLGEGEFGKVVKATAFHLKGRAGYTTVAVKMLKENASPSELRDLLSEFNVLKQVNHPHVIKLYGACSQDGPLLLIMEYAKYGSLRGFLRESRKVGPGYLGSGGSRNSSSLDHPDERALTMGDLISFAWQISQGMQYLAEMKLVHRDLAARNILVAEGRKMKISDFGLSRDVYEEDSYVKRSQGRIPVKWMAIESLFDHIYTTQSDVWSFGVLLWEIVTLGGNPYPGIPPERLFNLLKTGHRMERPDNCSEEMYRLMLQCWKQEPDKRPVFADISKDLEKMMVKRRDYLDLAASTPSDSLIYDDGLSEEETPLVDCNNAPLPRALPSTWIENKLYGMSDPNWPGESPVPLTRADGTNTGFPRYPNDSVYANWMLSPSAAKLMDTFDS
Sequence of Cytoplasmic tyrosine-protein kinase BMX (Homo sapiens) (P51813 whole entry, the tested form may be a part): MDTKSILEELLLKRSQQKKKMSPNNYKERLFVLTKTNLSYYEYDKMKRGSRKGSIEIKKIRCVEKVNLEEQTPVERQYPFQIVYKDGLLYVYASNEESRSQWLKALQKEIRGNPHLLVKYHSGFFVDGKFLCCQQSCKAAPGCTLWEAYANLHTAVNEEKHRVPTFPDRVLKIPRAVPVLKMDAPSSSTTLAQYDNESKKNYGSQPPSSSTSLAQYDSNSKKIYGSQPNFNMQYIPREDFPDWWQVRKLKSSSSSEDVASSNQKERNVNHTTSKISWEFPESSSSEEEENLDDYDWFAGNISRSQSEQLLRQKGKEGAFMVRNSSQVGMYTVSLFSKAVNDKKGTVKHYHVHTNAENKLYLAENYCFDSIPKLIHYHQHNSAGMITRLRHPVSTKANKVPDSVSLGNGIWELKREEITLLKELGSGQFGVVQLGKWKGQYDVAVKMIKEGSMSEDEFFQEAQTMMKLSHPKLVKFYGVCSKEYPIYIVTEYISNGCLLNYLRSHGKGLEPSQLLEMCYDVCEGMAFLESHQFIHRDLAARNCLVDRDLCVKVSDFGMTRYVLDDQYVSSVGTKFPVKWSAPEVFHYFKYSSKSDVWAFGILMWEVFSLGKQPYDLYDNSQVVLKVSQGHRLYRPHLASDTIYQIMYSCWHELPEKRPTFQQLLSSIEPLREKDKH
Sequence of Ephrin type-B receptor 3 (Homo sapiens) (P54753 whole entry, the tested form may be a part): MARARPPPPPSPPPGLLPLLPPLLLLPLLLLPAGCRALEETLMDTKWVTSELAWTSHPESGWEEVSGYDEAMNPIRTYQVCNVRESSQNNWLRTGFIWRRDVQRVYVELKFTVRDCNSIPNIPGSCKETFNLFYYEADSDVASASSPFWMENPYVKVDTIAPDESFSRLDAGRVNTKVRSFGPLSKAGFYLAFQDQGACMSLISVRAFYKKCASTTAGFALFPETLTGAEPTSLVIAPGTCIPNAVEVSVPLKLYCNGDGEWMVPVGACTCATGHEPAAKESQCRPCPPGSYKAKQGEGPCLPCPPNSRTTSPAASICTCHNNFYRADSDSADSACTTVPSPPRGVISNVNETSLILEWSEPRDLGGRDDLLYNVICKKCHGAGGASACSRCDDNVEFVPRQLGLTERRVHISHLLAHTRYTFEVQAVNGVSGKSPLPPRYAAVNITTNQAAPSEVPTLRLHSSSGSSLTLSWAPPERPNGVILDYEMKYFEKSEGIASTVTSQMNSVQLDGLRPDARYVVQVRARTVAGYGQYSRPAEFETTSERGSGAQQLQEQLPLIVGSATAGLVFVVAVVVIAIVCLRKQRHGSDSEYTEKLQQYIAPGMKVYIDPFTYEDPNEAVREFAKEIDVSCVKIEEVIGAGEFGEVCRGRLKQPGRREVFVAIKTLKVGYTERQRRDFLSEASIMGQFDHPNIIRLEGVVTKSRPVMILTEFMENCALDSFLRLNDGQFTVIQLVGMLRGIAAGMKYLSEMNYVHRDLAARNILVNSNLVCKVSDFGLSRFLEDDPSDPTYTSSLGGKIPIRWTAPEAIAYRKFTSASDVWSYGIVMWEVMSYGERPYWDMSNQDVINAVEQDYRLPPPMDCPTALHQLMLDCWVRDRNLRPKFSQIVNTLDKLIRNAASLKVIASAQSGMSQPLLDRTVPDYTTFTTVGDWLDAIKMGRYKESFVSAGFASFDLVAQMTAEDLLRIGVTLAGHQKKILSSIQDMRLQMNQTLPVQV
Sequence of LIM domain kinase 1 (Homo sapiens) (P53667 whole entry, looked up, the tested form may be a part): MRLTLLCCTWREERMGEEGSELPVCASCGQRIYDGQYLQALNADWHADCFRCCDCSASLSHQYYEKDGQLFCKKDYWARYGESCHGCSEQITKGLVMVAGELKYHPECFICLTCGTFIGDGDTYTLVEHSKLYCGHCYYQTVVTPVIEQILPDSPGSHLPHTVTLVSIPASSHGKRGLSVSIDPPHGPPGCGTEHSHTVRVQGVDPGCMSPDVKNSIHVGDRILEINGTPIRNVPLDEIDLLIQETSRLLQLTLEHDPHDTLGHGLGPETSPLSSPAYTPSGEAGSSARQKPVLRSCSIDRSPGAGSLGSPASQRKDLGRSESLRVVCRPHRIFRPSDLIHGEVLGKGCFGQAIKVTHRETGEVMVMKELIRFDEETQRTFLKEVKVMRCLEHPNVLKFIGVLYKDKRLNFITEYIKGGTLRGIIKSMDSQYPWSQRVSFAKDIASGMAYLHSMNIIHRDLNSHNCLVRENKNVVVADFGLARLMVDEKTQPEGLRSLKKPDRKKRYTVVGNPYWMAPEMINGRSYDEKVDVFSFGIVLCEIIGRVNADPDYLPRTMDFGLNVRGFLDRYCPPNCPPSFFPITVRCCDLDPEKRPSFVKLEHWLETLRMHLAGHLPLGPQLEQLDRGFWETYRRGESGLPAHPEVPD
Sequence of Casein kinase II subunit alpha (Homo sapiens) (P68400 whole entry, looked up, the tested form may be a part): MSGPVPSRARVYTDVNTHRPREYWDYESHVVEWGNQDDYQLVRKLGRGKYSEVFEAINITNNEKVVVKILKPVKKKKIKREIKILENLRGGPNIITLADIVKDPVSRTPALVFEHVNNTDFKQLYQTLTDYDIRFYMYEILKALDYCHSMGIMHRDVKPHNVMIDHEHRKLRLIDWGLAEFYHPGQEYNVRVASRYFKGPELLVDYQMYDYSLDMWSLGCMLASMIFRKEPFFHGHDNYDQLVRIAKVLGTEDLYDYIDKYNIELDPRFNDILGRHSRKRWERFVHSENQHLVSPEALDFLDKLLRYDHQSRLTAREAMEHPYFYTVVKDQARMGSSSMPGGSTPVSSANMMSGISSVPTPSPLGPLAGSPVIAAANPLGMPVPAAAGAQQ
Sequence of 3-phosphoinositide-dependent protein kinase 1 (Homo sapiens) (O15530 whole entry, looked up, the tested form may be a part): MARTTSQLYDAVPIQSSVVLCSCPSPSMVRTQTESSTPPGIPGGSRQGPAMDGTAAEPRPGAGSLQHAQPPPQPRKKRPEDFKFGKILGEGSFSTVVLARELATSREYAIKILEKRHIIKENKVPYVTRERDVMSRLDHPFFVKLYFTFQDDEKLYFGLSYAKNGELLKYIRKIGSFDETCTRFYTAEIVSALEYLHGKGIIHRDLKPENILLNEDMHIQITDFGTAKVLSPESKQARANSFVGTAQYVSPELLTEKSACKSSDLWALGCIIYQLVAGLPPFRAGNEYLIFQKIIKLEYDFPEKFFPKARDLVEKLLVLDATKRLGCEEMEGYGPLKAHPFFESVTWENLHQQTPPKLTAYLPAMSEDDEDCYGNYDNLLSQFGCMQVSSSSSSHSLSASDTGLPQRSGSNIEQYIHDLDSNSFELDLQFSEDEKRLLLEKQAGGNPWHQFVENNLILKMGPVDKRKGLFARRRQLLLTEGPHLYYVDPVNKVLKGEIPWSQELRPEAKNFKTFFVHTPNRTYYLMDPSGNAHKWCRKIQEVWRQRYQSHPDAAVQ

For `CCOc1cc(C(=O)N2CCC(N3CCN(C)CC3)CC2)ccc1Nc1ncc2c(n1)N(C1CCCC1)c1ccccc1C(=O)N2C`, the inhibition [1] was 0%.

`COc1cc(N2CCC(N3CCN(C)CC3)CC2)ccc1Nc1ncc2c(n1)N(C)c1ccccc1C(=O)N2C` showed an inhibition [2] of 100%, a residual activity [3] of 95% and an inhibition [4] of 86%. For the same compound, the inhibition [5] was 100%, the inhibition [6] was 100% and the inhibition [7] was 100%. It also gave an inhibition [8] of 100%, an inhibition [9] of 80% and an inhibition [10] of 100%. It also gave an inhibition [11] of 79%, an inhibition [12] of 87% and a residual activity [13] of 99%. For the same compound, the inhibition [14] was 100%, the residual activity [15] was 86% and the inhibition [16] was 100%. It also gave an inhibition [17] of 76%, a residual activity [18] of 80% and an inhibition [19] of 46%. For the same compound, the inhibition [20] was 100%, the residual activity [21] was 69% and the residual activity [22] was 80%. The inhibition [23] was 100%, the inhibition [24] was 100% and the inhibition [25] was 78%. The inhibition [26] was 95%, the inhibition [27] was 94% and the residual activity [28] was 80%. For the same compound, the inhibition [29] was 100%.

Compound `COc1cc(C(=O)N2CCC(N3CCN(C)CC3)CC2)ccc1Nc1ncc2c(n1)N(C1CCCC1)c1ccccc1C(=O)N2C` has an inhibition [30] of 0.3%.
